Key:
ROCK2 = biological target: T1, ROCK2 (Homo sapiens, UniProt O75116); assay: ROCK2 inhibition assay (ADP-Glo kinase assay, called ROCK2 binding activity); assay type: biochemical; conditions: 20 μM ATP, 1 hour pre-incubation, read-out: ROCK 2 (IC50 category)
T1 construct: N-terminal 6His-tagged ROCK2 catalytic domain 11-552; 6His (N); purchased Dundee University, UK; host or cells: baculovirus expression system
Description: ROCK2 Binding Activity: Assay for ROCK2 inhibition was performed using the protein construct N-terminal 6His-tagged ROCK2 catalytic domain 11-552 (Dundee University, UK). Protein was purified from a baculovirus expression system. Long S6 peptide ([…]) was used as substrate. Kinase reactions were carried out in 15 μl volume in a 96-well plate (black, half area) using 1.25 nM constitutively active ROCK2 kinase, 100 μM long S6 peptide, 20 μM ATP and test compound in DMSO (or DMSO only for controls). The final concentration of DMSO was 1%. Assay buffer was 50 mM HEPES pH 7.5 supplemented with 0.2 mM EDTA, 10 mM magnesium acetate, 0.01% Tween-20, 1 mM DTT and 0.01% BSA. Test compounds were pre-incubated with ROCK2 kinase for 1 hour before addition of ATP and long S6 peptide. After incubation for a further 1 hour, the amount of ADP produced was measured using ADP-Glo Kinase Assay (Promega) as per manufacturer's instructions. The luminescence was measured on a PHERAstar FS (BMG Labtech). The concentration of test compound required to inhibit ADP production by 50% (the IC50) was calculated using a four-parameter logistic function with software by Dotmatics. […] The category “+” refers to compounds with a ROCK2 or ROCK1 IC50 value of >10 μM. The category “++” refers to compounds with a ROCK2 or ROCK1 IC50 value of 10 to 3 μM. The category “+++” refers to compounds with a ROCK1 or ROCK2 IC50 value of 3 to 0.3 μM. The category “++++” refers to compounds with a ROCK1 or ROCK2 IC50 value of <0.3 μM.

ROCK1 = ROCK1 (Homo sapiens, UniProt Q13464); assay: ROCK1 inhibition assay (ROCK1 binding activity, as determined by the assay described for ROCK2); assay type: biochemical; conditions: read-out: ROCK 1 (IC50 category)
Description: Assay for ROCK2 inhibition was performed using the protein construct N-terminal 6His-tagged ROCK2 catalytic domain 11-552 (Dundee University, UK). Protein was purified from a baculovirus expression system. Long S6 peptide ([…]) was used as substrate. Kinase reactions were carried out in 15 μl volume in a 96-well plate (black, half area) using 1.25 nM constitutively active ROCK2 kinase, 100 μM long S6 peptide, 20 μM ATP and test compound in DMSO (or DMSO only for controls). The final concentration of DMSO was 1%. Assay buffer was 50 mM HEPES pH 7.5 supplemented with 0.2 mM EDTA, 10 mM magnesium acetate, 0.01% Tween-20, 1 mM DTT and 0.01% BSA. Test compounds were pre-incubated with ROCK2 kinase for 1 hour before addition of ATP and long S6 peptide. After incubation for a further 1 hour, the amount of ADP produced was measured using ADP-Glo Kinase Assay (Promega) as per manufacturer's instructions. The luminescence was measured on a PHERAstar FS (BMG Labtech). The concentration of test compound required to inhibit ADP production by 50% (the IC50) was calculated using a four-parameter logistic function with software by Dotmatics. […] The category “+” refers to compounds with a ROCK2 or ROCK1 IC50 value of >10 μM. The category “++” refers to compounds with a ROCK2 or ROCK1 IC50 value of 10 to 3 μM. The category “+++” refers to compounds with a ROCK1 or ROCK2 IC50 value of 3 to 0.3 μM. The category “++++” refers to compounds with a ROCK1 or ROCK2 IC50 value of <0.3 μM.

Chain of ROCK1 (Q13464 whole entry, the tested form may be a part): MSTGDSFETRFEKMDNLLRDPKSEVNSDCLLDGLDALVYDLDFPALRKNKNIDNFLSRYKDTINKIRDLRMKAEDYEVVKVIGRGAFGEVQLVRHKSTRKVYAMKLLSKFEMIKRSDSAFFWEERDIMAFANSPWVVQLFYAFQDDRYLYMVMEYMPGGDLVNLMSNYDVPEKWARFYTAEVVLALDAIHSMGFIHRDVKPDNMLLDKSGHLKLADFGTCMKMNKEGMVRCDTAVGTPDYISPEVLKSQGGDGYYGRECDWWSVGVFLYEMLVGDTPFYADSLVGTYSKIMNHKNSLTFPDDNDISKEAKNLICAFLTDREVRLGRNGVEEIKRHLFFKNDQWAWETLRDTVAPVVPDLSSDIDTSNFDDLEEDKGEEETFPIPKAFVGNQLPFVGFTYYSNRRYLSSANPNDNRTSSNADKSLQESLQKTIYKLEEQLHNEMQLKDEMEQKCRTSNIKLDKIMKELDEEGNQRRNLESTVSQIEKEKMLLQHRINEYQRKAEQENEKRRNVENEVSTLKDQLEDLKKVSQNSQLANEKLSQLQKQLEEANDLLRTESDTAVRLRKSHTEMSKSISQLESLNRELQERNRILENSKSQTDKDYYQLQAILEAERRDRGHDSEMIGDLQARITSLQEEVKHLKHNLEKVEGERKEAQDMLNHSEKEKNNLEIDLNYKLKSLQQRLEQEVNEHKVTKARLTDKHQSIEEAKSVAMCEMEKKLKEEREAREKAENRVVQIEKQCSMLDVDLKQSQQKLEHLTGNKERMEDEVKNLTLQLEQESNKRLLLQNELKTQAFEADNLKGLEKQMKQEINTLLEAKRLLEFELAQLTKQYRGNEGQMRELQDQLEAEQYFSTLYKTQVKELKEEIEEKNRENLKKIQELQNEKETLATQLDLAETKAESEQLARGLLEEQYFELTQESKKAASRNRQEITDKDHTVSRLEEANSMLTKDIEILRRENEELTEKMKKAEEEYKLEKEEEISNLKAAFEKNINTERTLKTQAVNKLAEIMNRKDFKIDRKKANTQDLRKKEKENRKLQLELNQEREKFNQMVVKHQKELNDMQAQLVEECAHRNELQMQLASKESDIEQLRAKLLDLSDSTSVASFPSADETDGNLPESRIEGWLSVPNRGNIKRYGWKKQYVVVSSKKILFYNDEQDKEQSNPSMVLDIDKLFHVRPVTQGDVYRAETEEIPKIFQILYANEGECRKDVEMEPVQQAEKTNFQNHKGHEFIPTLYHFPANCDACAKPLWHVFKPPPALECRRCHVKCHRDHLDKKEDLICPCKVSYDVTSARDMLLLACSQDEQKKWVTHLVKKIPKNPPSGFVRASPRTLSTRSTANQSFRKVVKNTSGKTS
T1 sequence (O75116 11-552): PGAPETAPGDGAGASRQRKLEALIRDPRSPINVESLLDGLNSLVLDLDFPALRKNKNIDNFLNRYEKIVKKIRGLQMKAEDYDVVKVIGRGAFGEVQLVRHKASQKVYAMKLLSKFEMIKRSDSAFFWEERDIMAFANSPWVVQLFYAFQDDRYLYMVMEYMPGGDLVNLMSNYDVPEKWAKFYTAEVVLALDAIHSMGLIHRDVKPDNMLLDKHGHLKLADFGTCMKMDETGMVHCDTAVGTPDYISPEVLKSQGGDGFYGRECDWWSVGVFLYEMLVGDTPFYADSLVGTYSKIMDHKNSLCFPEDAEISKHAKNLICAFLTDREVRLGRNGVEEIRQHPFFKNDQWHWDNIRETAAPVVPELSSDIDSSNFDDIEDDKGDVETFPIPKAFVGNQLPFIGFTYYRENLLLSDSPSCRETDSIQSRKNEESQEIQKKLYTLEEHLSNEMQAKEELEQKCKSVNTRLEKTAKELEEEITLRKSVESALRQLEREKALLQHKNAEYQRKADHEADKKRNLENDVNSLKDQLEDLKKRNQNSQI

Compound | IC50 (ROCK2) | IC50 (ROCK1)
CCn1nc(-c2ccc(-c3ncc(C)cc3C)c(C)c2)nc1Nc1cc2c(cc1C)C(=O)NC2C (centres unmarked) [Example 90] | 3 to 10 µM | > 10 µM
CCn1nc(-c2ccc(-c3ccc(C4CC4)nc3)c(C)c2)nc1Nc1ccc2c(c1)CNC2=O [Example 40] | < 0.3 µM | > 10 µM
CCn1nc(-c2ccc(-c3cc(C)cnc3C)c(C)c2)nc1Nc1cc2c(cc1C)C(=O)NC2C (centres unmarked) [Example 87] | 3 to 10 µM | > 10 µM
CCn1nc(-c2ccc(-n3cnc(C4CC4)c3)c(C)c2)nc1Nc1cc2c(cc1C)C(=O)NC2C (centres unmarked) [Example 59] | < 0.3 µM | 3 to 10 µM
Cc1cc(-c2nc(Nc3ccc4c(c3C)CNC4=O)n(C)n2)ccc1-n1cnc(C2CC2)c1 [Example 13] | < 0.3 µM | > 10 µM
CCn1nc(-c2ccc(-c3ccc(C)nc3)c(F)c2)nc1Nc1cc2c(cc1C)C(=O)NC2C (centres unmarked) [Example 57] | < 0.3 µM | > 10 µM
CCn1nc(-c2ccc(-c3ccc(C)nc3)c(C)c2)nc1Nc1ccc2c(c1)CNC2=O [Example 31] | < 0.3 µM | 3 to 10 µM
CCn1nc(-c2ccc(-c3ccc(C4CC4)nc3)cc2C)nc1Nc1cc2c(cc1C)C(=O)NC2C (centres unmarked) [Example 56] | < 0.3 µM | 3 to 10 µM
CCn1nc(-c2ccc(-c3ccc(C4CC4)nc3)nc2)nc1Nc1ccc2c(c1)C(C)NC2=O (centres unmarked) [Example 60] | < 0.3 µM | > 10 µM
CCn1nc(-c2ccc(-c3ccc(C4CC4)nc3)c(C)c2)nc1Nc1ccc2c(c1)C(C)NC2=O (centres unmarked) [Example 66] | < 0.3 µM | > 10 µM
CCn1nc(-c2cc(C)c(-c3ccc(C)nc3)cc2F)nc1Nc1cc2c(cc1C)C(=O)NC2C (centres unmarked) [Example 83] | < 0.3 µM | 3 to 10 µM
CCn1nc(-c2ccc(-c3ccc(C)nc3)cc2)nc1Nc1ccc2c(c1)C1(CC1)NC2=O [Example 69] | < 0.3 µM | > 10 µM
CCn1nc(-c2ccc(-c3ccc(C)nc3)nc2)nc1Nc1ccc2c(c1)CNC2=O [Example 39] | < 0.3 µM | > 10 µM
CCn1nc(-c2ccc(-n3cnc(C4CC4)c3)cc2)nc1Nc1ccc2c(c1)CNC2=O [Example 24] | < 0.3 µM | 3 to 10 µM
CCn1nc(-c2ccc(-c3ccc(C)nc3)c(C)c2)nc1Nc1ccc2c(c1)C(C)NC2=O (centres unmarked) [Example 72] | < 0.3 µM | > 10 µM
CCn1nc(-c2cc(C)c(-c3cn(C)c(C4CC4)n3)cc2C)nc1Nc1ccc2c(c1)C(C)NC2=O (centres unmarked) [Example 99] | < 0.3 µM | 3 to 10 µM
CCn1nc(-c2ccc(-c3ccc(C)nc3)cc2)nc1Nc1ccc2c(c1C)C(C)NC2=O (centres unmarked) [Example 43] | 3 to 10 µM | > 10 µM
CCn1nc(-c2ccc(-c3cnc(C4CC4)n3C)cc2)nc1Nc1ccc2c(c1)C(C)NC2=O (centres unmarked) [Example 64] | < 0.3 µM | 3 to 10 µM
CCn1nc(-c2ccc(-n3cnc(C4CC4)c3)c(C)c2)nc1Nc1ccc2c(c1)C(C)NC2=O (centres unmarked) [Example 76] | < 0.3 µM | 3 to 10 µM
CCn1nc(-c2ccc(-c3cnc(C4CC4)n3C)cc2)nc1Nc1cc2c(cc1C)C(=O)NC2C (centres unmarked) [Example 58] | < 0.3 µM | 3 to 10 µM
CCn1nc(-c2ccc(-c3ccc(C)nc3)cc2)nc1Nc1cc2c(cc1C)C(=O)NC2C (single isomer, unassigned) [Example 84] | < 0.3 µM | 3 to 10 µM
CCn1nc(-c2ccc(-c3cnc(C4CC4)n3C)c(C)c2)nc1Nc1ccc2c(c1)C(C)NC2=O (centres unmarked) [Example 65] | < 0.3 µM | 3 to 10 µM
CCn1nc(-c2cc(C)c(-c3ccc(C)nc3)cc2F)nc1Nc1ccc2c(c1)C(C)NC2=O (centres unmarked) [Example 98] | < 0.3 µM | 3 to 10 µM
Cc1nc(C2CC2)cn1-c1ccc(-c2nc(Nc3ccc4c(c3)C(C)(C)NC4=O)n(C)n2)cc1 [Example 17] | 3 to 10 µM | > 10 µM
CCn1nc(-c2ccc(-c3cnc(C4CC4)n3C)cc2)nc1Nc1ccc2c(c1C)CNC2=O [Example 11] | 3 to 10 µM | > 10 µM
CCn1nc(-c2ccc(-c3ccc(C)nc3)cc2)nc1Nc1ccc2c(c1)C(F)NC2=O (centres unmarked) [Example 93] | < 0.3 µM | 3 to 10 µM
CCn1nc(-c2ccc(-c3ccc(C)cn3)c(C)c2)nc1Nc1ccc2c(c1)CNC2=O [Example 44] | < 0.3 µM | > 10 µM
CCn1nc(-c2ccc(-c3ccc(C)nc3)cc2)nc1Nc1cc2c(cc1C)C(=O)NC2C (single isomer, unassigned) [Example 78] | < 0.3 µM | 3 to 10 µM
CCn1nc(-c2ccc(-c3ccnc(C4CC4)c3)c(F)c2)nc1Nc1ccc2c(c1)CNC2=O [Example 33] | < 0.3 µM | 3 to 10 µM
CCn1nc(-c2ccc(-c3cnc(C4CC4)n3C)cc2)nc1Nc1ccc2c(c1)CNC2=O [Example 25] | < 0.3 µM | 3 to 10 µM

The next lines start with the values.

IC50 (ROCK2) | IC50 (ROCK1) | Compound
< 0.3 µM | 0.3 to 3 µM | CCn1nc(-c2ccc(-n3cnc(C4CC4)c3)cc2C)nc1Nc1cc2c(cc1C)C(=O)N[C@H]2C [Example 159]
< 0.3 µM | 0.3 to 3 µM | CCn1nc(-c2ccc(-c3cnn(CC(F)(F)F)c3)cc2)nc1Nc1cc2c(cc1C)C(=O)N[C@@H]2C [Example 163]
0.3 to 3 µM | > 10 µM | CCn1nc(-c2ccc(-c3ccc(C4CC4)nc3)c(C)c2)nc1Nc1cc2c(cc1C)C(=O)NC2C (centres unmarked) [Example 156]
< 0.3 µM | 3 to 10 µM | CCn1nc(-c2ccc(-c3ccn(CC(F)(F)F)c3)cc2)nc1Nc1cc2c(cc1C)C(=O)NC2C (centres unmarked) [Example 124]
< 0.3 µM | 0.3 to 3 µM | CCn1nc(-c2ccc(-c3cnn(CC(F)(F)F)c3)cc2C)nc1Nc1cc2c(cc1C)C(=O)NC2C (centres unmarked) [Example 153]
> 10 µM | > 10 µM | CCn1nc(-c2ccc(C3CCCN(C)C3)c(C)c2)nc1Nc1cc2c(cc1C)C(=O)NC2C (centres unmarked) [Example 140]
< 0.3 µM | > 10 µM | CCn1nc(-c2cc(C)c(-c3ccc(C4CC4)cn3)cc2C)nc1Nc1ccc2c(c1)C(C)NC2=O (centres unmarked) [Example 135]
< 0.3 µM | 0.3 to 3 µM | CCn1nc(-c2ccc(-c3ccc(C4CC4)cn3)nc2)nc1Nc1cc2c(cc1C)C(=O)NC2C (centres unmarked) [Example 137]
3 to 10 µM | > 10 µM | CCn1nc(-c2ccc(C3CCC(C)NC3)c(C)c2)nc1Nc1cc2c(cc1C)C(=O)NC2C (centres unmarked) [Example 145, 5-[[2-ethyl-5-[3-methyl-4-(6-methyl-3-piperidyl)phenyl]-1,2,4-triazol-3-yl]amino]-3,6-dimethyl-isoindolin-1-one]
< 0.3 µM | 3 to 10 µM | CCn1nc(-c2cc(C)c(-c3ccc(C4CC4)nc3)cc2F)nc1Nc1ccc2c(c1)C(C)NC2=O (centres unmarked) [Example 106]
0.3 to 3 µM | 0.3 to 3 µM | CCn1nc(-c2ccc(C3CCN(C(C)C(F)(F)F)CC3)cc2)nc1Nc1cc2c(cc1C)C(=O)NC2C (centres unmarked) [Example 127]
< 0.3 µM | > 10 µM | CCn1nc(-c2ccc(C3=CCN(CC(F)(F)F)C3)c(C)c2)nc1Nc1cc2c(cc1C)C(=O)NC2C (centres unmarked) [Example 118]
< 0.3 µM | > 10 µM | CCn1nc(-c2cc(C)c(-c3ccc(C4CC4)cn3)cc2C)nc1Nc1cc2c(cc1C)C(=O)NC2C (centres unmarked) [Example 114]
< 0.3 µM | 3 to 10 µM | CCn1nc(-c2cc(C)c(-c3ccc(C4CC4)cn3)cc2F)nc1Nc1cc2c(cc1C)C(=O)NC2C (centres unmarked) [Example 109]
< 0.3 µM | 3 to 10 µM | CCn1nc(-c2ccc(-c3cnn(CC(F)(F)F)c3)cc2)nc1Nc1cc2c(cc1C)C(=O)NC2C (centres unmarked) [Example 152]
< 0.3 µM | 3 to 10 µM | CCn1nc(-c2ccc(-c3ccc(C)nc3)cc2F)nc1Nc1cc2c(cc1C)C(=O)NC2C (centres unmarked) [Example 132]

From patent US20250122173A1, “MODULATORS OF RHO-ASSOCIATED PROTEIN KINASE” (Redx Pharma Limited, priority 2022, published 2025)
